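In this assay, cells in 96-well plates receive the compound at five concentrations for 48 hours. Endpoints are linearly interpolated between the surrounding concentrations. GI50: concentration for 50% inhibition of growth.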 Calls of active or inactive are those of the source. Cut-off read from the data, not from the text of the source: active = GI50 up to about 1.1 µM and inactive = higher.
Key:
Test in all cases: NCI tumour cell line growth inhibition, 48 h
SK-MEL-28 = system: SK-MEL-28
SK-OV-3 = system: SK-OV-3
SF-539 = system: SF-539
HOP-92 = system: HOP-92
OVCAR-3 = system: OVCAR-3
Malme-3M = system: Malme-3M
NCI-H522 = system: NCI-H522
IGROV-1 = system: IGROV-1
RXF 393 = system: RXF 393
HCC 2998 = system: HCC 2998
ACHN = system: ACHN
K562 = system: K562
KM12 = system: KM12
SNB-19 = system: SNB-19
HCT-15 = system: HCT-15
NCI/ADR-RES = system: NCI/ADR-RES
OVCAR-5 = system: OVCAR-5
UACC-257 = system: UACC-257
SN12C = system: SN12C
SNB-75 = system: SNB-75

Structure (SMILES)	GI50 (SK-MEL-28)	GI50 (SK-OV-3)	GI50 (SF-539)	GI50 (HOP-92)	GI50 (OVCAR-3)	GI50 (Malme-3M)	GI50 (NCI-H522)	GI50 (IGROV-1)	GI50 (RXF 393)	GI50 (HCC 2998)	GI50 (ACHN)	GI50 (K562)	GI50 (KM12)	GI50 (SNB-19)	GI50 (HCT-15) [µM]	GI50 (NCI/ADR-RES)	GI50 (OVCAR-5)	GI50 (UACC-257)	GI50 (SN12C)	GI50 (SNB-75)
COC(=O)Nc1nc2ccc(S(=O)(=O)SC)cc2[nH]1	8.28 µM (inactive)	8.39 µM (inactive)	4 µM (inactive)	6.35 µM (inactive)	4.86 µM (inactive)	9.89 µM (inactive)	4.33 µM (inactive)	3.37 µM (inactive)	5.46 µM (inactive)	10.4 µM (inactive)	10.2 µM (inactive)	4.86 µM (inactive)	5.45 µM (inactive)	7.55 µM (inactive)	3.89	3.61 µM (inactive)	11.6 µM (inactive)	10.8 µM (inactive)	10.9 µM (inactive)	
CC(=O)On1c(-c2ccccc2-c2nc3ccccc3n2OC(C)=O)nc2ccccc21	29.3 µM (inactive)	55.1 µM (inactive)	42.7 µM (inactive)		24.3 µM (inactive)	15.1 µM (inactive)	18.5 µM (inactive)	22.1 µM (inactive)		33.4 µM (inactive)	61.8 µM (inactive)	13.9 µM (inactive)	22.5 µM (inactive)	60.5 µM (inactive)	67.5	79.3 µM (inactive)	> 100 µM (inactive)	12.5 µM (inactive)	39.6 µM (inactive)	35.2 µM (inactive)
O=C1CSC(c2ccccc2O)N1c1ccc2c(c1)Oc1c(Cl)c3c(c(Cl)c1=N2)Oc1cc(N2C(=O)CSC2c2ccccc2O)ccc1N=3 (stereo not given)	81.5 µM (inactive)	25.8 µM (inactive)	37.9 µM (inactive)	17.1 µM (inactive)	33.3 µM (inactive)		20.6 µM (inactive)	36.1 µM (inactive)	17.1 µM (inactive)	53.3 µM (inactive)	24.5 µM (inactive)	13.2 µM (inactive)	34.3 µM (inactive)		> 100	> 100 µM (inactive)	> 100 µM (inactive)	81.1 µM (inactive)		
COC1/C=C\C=C(/C)C(=O)NC2=CC(=O)C=C(C2=O)C(OC)C(C)CC(OC)C(OC)C(C)/C=C(/C)C1OC(N)=O (stereo not given)	2.59 µM (inactive)	14.6 µM (inactive)	8.09 µM (inactive)	2.04 µM (inactive)	1.49 µM (inactive)	0.189 µM (active)	0.231 µM (active)	12.7 µM (inactive)		2.66 µM (inactive)		0.15 µM (active)	5.7 µM (inactive)	14.1 µM (inactive)	3.38	5.73 µM (inactive)	15.3 µM (inactive)	1.37 µM (inactive)	5.25 µM (inactive)	17.3 µM (inactive)
O=C(/C=C/c1cccs1)c1ccc(C(=O)/C=C/c2cccs2)cc1	> 100 µM (inactive)	> 100 µM (inactive)	> 100 µM (inactive)	> 100 µM (inactive)	> 100 µM (inactive)	> 100 µM (inactive)	> 100 µM (inactive)	> 100 µM (inactive)		> 100 µM (inactive)	> 100 µM (inactive)		> 100 µM (inactive)	> 100 µM (inactive)	> 100	> 100 µM (inactive)	> 100 µM (inactive)	> 100 µM (inactive)	> 100 µM (inactive)	> 100 µM (inactive)
C(=N\c1ccc(-c2cc(-c3ccccc3)nc3ccc4ccccc4c23)cc1)/c1ccccc1	14.1 µM (inactive)	30.3 µM (inactive)	16.5 µM (inactive)		20.4 µM (inactive)	30.5 µM (inactive)		37.3 µM (inactive)	9.68 µM (inactive)	11.4 µM (inactive)	34.6 µM (inactive)	4.79 µM (inactive)	10.8 µM (inactive)	18.5 µM (inactive)	8.26	28.5 µM (inactive)	56.1 µM (inactive)	23.5 µM (inactive)	8.39 µM (inactive)	1.18 µM (inactive)
CC(=O)Oc1ccccc1/C=C/C(=O)/C=C/c1ccccc1OC(C)=O	1.97 µM (inactive)	4.15 µM (inactive)	1.74 µM (inactive)	4.11 µM (inactive)	1.66 µM (inactive)	2.81 µM (inactive)	1.96 µM (inactive)	2 µM (inactive)	0.126 µM (active)	1.88 µM (inactive)	1.8 µM (inactive)	0.429 µM (active)	1.09 µM (active)	2.39 µM (inactive)	2.09	3.33 µM (inactive)	2.21 µM (inactive)	1.36 µM (inactive)	1.9 µM (inactive)	
CC1(C)Oc2ccc3c(=O)cc(-c4ccc(F)cc4)oc3c2C1C(=O)O (stereo not given)		> 100 µM (inactive)	> 100 µM (inactive)		> 100 µM (inactive)	> 100 µM (inactive)	> 100 µM (inactive)	> 100 µM (inactive)	> 100 µM (inactive)	> 100 µM (inactive)		> 100 µM (inactive)				> 100 µM (inactive)	> 100 µM (inactive)	> 100 µM (inactive)	> 100 µM (inactive)	
C/C(=C1\C(=O)C(c2ccccc2)N(c2ccccc2)C1=O)c1ccc(Cl)cc1 (stereo not given)	16.3 µM (inactive)	16.7 µM (inactive)	21.3 µM (inactive)	3.17 µM (inactive)	15.6 µM (inactive)	19.7 µM (inactive)	18.2 µM (inactive)	18.7 µM (inactive)	24 µM (inactive)	36.6 µM (inactive)	19.3 µM (inactive)	30.1 µM (inactive)	22.2 µM (inactive)	17.4 µM (inactive)	19.1	29.1 µM (inactive)		16.9 µM (inactive)	30.7 µM (inactive)	
C#CCCCC(=C)C[C@H](OCc1ccccc1)[C@H]1OC(=O)[C@@H]1C	> 100 µM (inactive)	> 100 µM (inactive)	20.5 µM (inactive)	37.6 µM (inactive)	31.3 µM (inactive)				> 100 µM (inactive)	> 100 µM (inactive)	72.6 µM (inactive)		39 µM (inactive)	> 100 µM (inactive)	79.4	40.9 µM (inactive)	> 100 µM (inactive)	> 100 µM (inactive)	> 100 µM (inactive)	> 100 µM (inactive)
CO/C=C(/C(=O)OC)[C@@H]1C[C@@H]1c1ccc2ccccc2c1	23.4 µM (inactive)	22.2 µM (inactive)	19.5 µM (inactive)	19.8 µM (inactive)	24.6 µM (inactive)	20.2 µM (inactive)	12 µM (inactive)	20.5 µM (inactive)	44.1 µM (inactive)	20.4 µM (inactive)	25.9 µM (inactive)	23 µM (inactive)	21.7 µM (inactive)	56.5 µM (inactive)	18.8	26.4 µM (inactive)	97.5 µM (inactive)	26 µM (inactive)	32.7 µM (inactive)	
Cc1ccc(SCC(CF)OC(C)n2cnc3c(O)nc(N)nc32)cc1 (stereo not given)	> 100 µM (inactive)	> 100 µM (inactive)	> 100 µM (inactive)	> 100 µM (inactive)	88.7 µM (inactive)	> 100 µM (inactive)	> 100 µM (inactive)	> 100 µM (inactive)		> 100 µM (inactive)	55.6 µM (inactive)		> 100 µM (inactive)	> 100 µM (inactive)	> 100	> 100 µM (inactive)	> 100 µM (inactive)	48.4 µM (inactive)	> 100 µM (inactive)	> 100 µM (inactive)

From ChEMBL document CHEMBL1201862, “PubChem BioAssay data set” (2004)
